Measured values reported in PubChem BioAssay AID248 (DTP/NCI, 2004).
Several values for one entry are separate records, joined by “and”; a condition that tells them apart may be missing. Equal values may be shown once. Toxic doses and inconclusive results are not listed. Peptide text beside a SMILES is read from it. * marks the point of attachment. Boc = CC(C)(C)OC(=O)*

Tested on: L1210 leukemia ip in BDF1 mice, survival T/C
Assay: NCI In Vivo Anticancer Drug Screen. Data for tumor model L1210 Leukemia (intraperitoneal) in B6D2F1 (BDF1) mice
Conditions: endpoint: mean survival time, higher = longer survival
In short: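 Transplantable tumor model; survival measured in treated vs vehicle control mice. Value = treated/control.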

[1] = dose: 100.0 mg/kg/injection, schedule: Q01DX009 (ip), vehicle: saline with Tween-80
[2] = dose: 100.0 mg/kg/injection, schedule: Q04DX002 (ip), vehicle: saline with Tween-80
[3] = dose: 200.0 mg/kg/injection, schedule: Q01DX009 (ip), vehicle: saline with Tween-80
[4] = dose: 200.0 mg/kg/injection, schedule: Q04DX002 (ip), vehicle: saline with Tween-80
[5] = dose: 400.0 mg/kg/injection, schedule: Q01DX009 (ip), vehicle: saline with Tween-80
[6] = dose: 400.0 mg/kg/injection, schedule: Q04DX002 (ip), vehicle: saline with Tween-80
[7] = dose: 100.0 mg/kg/injection, schedule: Q04DX002 (ip), vehicle: Klucel (hydroxypropylcellulose) (HPC)
[8] = dose: 200.0 mg/kg/injection, schedule: Q04DX002 (ip), vehicle: Klucel (hydroxypropylcellulose) (HPC)
[9] = dose: 400.0 mg/kg/injection, schedule: Q04DX002 (ip), vehicle: Klucel (hydroxypropylcellulose) (HPC)
[10] = dose: 100.0 mg/kg/injection, schedule: Q04DX003 (ip), vehicle: saline
[11] = dose: 200.0 mg/kg/injection, schedule: Q04DX003 (ip), vehicle: saline
[12] = dose: 400.0 mg/kg/injection, schedule: Q04DX003 (ip), vehicle: saline
[13] = dose: 100.0 mg/kg/injection, schedule: Q04DX003 (ip), vehicle: Klucel (hydroxypropylcellulose) (HPC)
[14] = dose: 200.0 mg/kg/injection, schedule: Q04DX003 (ip), vehicle: Klucel (hydroxypropylcellulose) (HPC)
[15] = dose: 400.0 mg/kg/injection, schedule: Q04DX003 (ip), vehicle: Klucel (hydroxypropylcellulose) (HPC)

CC(Cl)CN(CC(C)Cl)c1ccc(S(=O)(=O)Nc2ncccn2)cc1 (centres undefined)
T/C (dose: 5.0 mg/kg/injection, schedule: Q01DX009 (ip), vehicle: gum acacia): 107 % of control
T/C (dose: 5.0 mg/kg/injection, schedule: Q01DX009 (ip), vehicle: saline): 104 % of control
T/C (dose: 8.0 mg/kg/injection, schedule: Q01DX009 (ip), vehicle: gum acacia): 100 % of control
T/C (dose: 10.0 mg/kg/injection, schedule: Q01DX009 (ip), vehicle: saline): 98 % of control
T/C (dose: 12.0 mg/kg/injection, schedule: Q01DX009 (ip), vehicle: gum acacia): 96 % of control
T/C (dose: 20.0 mg/kg/injection, schedule: Q01DX009 (ip), vehicle: saline): 105 % of control
T/C (dose: 30.0 mg/kg/injection, schedule: Q01DX009 (ip), vehicle: saline): 111 % of control
T/C (dose: 45.0 mg/kg/injection, schedule: Q01DX009 (ip), vehicle: saline): 114 % of control and 117 % of control
T/C (dose: 80.0 mg/kg/injection, schedule: Q01DX009 (ip), vehicle: other): 122 % of control
T/C (dose: 80.0 mg/kg/injection, schedule: Q01DX009 (ip), vehicle: saline with Tween-80): 123 % of control
T/C (dose: 80.0 mg/kg/injection, schedule: Q01DX009 (ip), vehicle: saline): 106 % of control and 108 % of control
T/C (dose: 90.0 mg/kg/injection, schedule: Q01DX009 (ip), vehicle: saline): 120 % of control
T/C (dose: 120.0 mg/kg/injection, schedule: Q01DX009 (ip), vehicle: other): 121 % of control
T/C (dose: 120.0 mg/kg/injection, schedule: Q01DX009 (ip), vehicle: saline): 111 % of control
T/C (dose: 180.0 mg/kg/injection, schedule: Q01DX009 (ip), vehicle: other): 98 % of control

COC(=O)CNC(=O)C(CC(C)C)NC(=O)C(CC(C)C)NC(=O)OC(C)(C)C (stereo not drawn) (Boc-Leu-Leu-Gly-OMe; configuration not given here)
T/C (dose: 75.0 mg/kg/injection, schedule: Q01DX001 (ip), vehicle: saline): 106 % of control
T/C (dose: 150.0 mg/kg/injection, schedule: Q01DX001 (ip), vehicle: saline): 98 % of control
T/C (dose: 300.0 mg/kg/injection, schedule: Q01DX001 (ip), vehicle: saline): 98 % of control

CCOC(=O)C(CCC(C)C)C(C)=O (centres undefined)
T/C [1]: 97 % of control
T/C [2]: 101 % of control
T/C [3]: 112 % of control
T/C [4]: 97 % of control
T/C [5]: 104 % of control
T/C [6]: 101 % of control

CC(c1ccccc1O)C1CCCCC1N=O (centres undefined)
T/C [7]: 105 % of control
T/C [8]: 102 % of control
T/C [9]: 98 % of control

[C-]#[N+]C1(C)CC1(c1ccccc1)c1ccccc1 (centres undefined)
T/C (dose: 50.0 mg/kg/injection, schedule: Q04DX003 (ip), vehicle: saline): 103 % of control
T/C [10]: 110 % of control
T/C [11]: 95 % of control

N#Cc1c(F)c(F)c(C#N)c(F)c1F
T/C (dose: 1.25 mg/kg/injection, schedule: Q01DX009 (ip), vehicle: Klucel (hydroxypropylcellulose) (HPC)): 97 % of control
T/C (dose: 2.5 mg/kg/injection, schedule: Q01DX009 (ip), vehicle: Klucel (hydroxypropylcellulose) (HPC)): 95 % of control
T/C (dose: 5.0 mg/kg/injection, schedule: Q01DX001 (ip), vehicle: saline): 98 % of control
T/C (dose: 5.0 mg/kg/injection, schedule: Q01DX009 (ip), vehicle: Klucel (hydroxypropylcellulose) (HPC)): 103 % of control
T/C (dose: 10.0 mg/kg/injection, schedule: Q01DX001 (ip), vehicle: saline): 102 % of control
T/C (dose: 10.0 mg/kg/injection, schedule: Q01DX009 (ip), vehicle: Klucel (hydroxypropylcellulose) (HPC)): 104 % of control

CCOC(=O)C(C)(C(=O)OCC)c1ccccc1
T/C [1]: 97 % of control
T/C [10]: 97 % of control
T/C [3]: 95 % of control
T/C [11]: 97 % of control
T/C [5]: 95 % of control
T/C [12]: 98 % of control

CC(C)CCS(=O)c1ccccc1 (centres undefined)
T/C (dose: 75.0 mg/kg/injection, schedule: Q01DX001 (ip), vehicle: acetone): 91 % of control
T/C (dose: 75.0 mg/kg/injection, schedule: Q04DX003 (ip), vehicle: acetone): 100 % of control
T/C (dose: 150.0 mg/kg/injection, schedule: Q01DX001 (ip), vehicle: acetone): 100 % of control
T/C (dose: 150.0 mg/kg/injection, schedule: Q04DX003 (ip), vehicle: acetone): 97 % of control
T/C (dose: 300.0 mg/kg/injection, schedule: Q01DX001 (ip), vehicle: acetone): 98 % of control
T/C (dose: 300.0 mg/kg/injection, schedule: Q04DX003 (ip), vehicle: acetone): 89 % of control

COc1ccc(OP(=O)(N2CC2)N2CC2)cc1
T/C (dose: 75.0 mg/kg/injection, schedule: Q01DX Z (ip), vehicle: carboxymethylcellulose (CMC)): 120 % of control
T/C (dose: 300.0 mg/kg/injection, schedule: Q01DX Z (ip), vehicle: carboxymethylcellulose (CMC)): 160 % of control

CC(=O)C1(C)C(=O)N(S(=O)(=O)c2ccc(C)cc2)C(=O)N1S(=O)(=O)c1ccc(C)cc1 (centres undefined)
T/C (dose: 100.0 mg/kg/injection, schedule: Q01DX001 (ip), vehicle: saline): 91 % of control
T/C (dose: 200.0 mg/kg/injection, schedule: Q01DX001 (ip), vehicle: saline): 89 % of control
T/C (dose: 400.0 mg/kg/injection, schedule: Q01DX001 (ip), vehicle: saline): 100 % of control

CN1CCCCC1C(O)CO (centres undefined)
T/C [10]: 103 % of control
T/C [11]: 102 % of control
T/C [12]: 100 % of control

O=C(Oc1ccc(S(=O)(=O)F)cc1Cl)c1ccc(Cl)cc1
T/C [7]: 92 % of control
T/C [8]: 89 % of control
T/C [9]: 89 % of control

CC(=O)n1c2ccccc2c2nc3cnccc3nc21
T/C (dose: 16.0 mg/kg/injection, schedule: Q01DX005 (ip), vehicle: saline): 97 % of control
T/C (dose: 32.0 mg/kg/injection, schedule: Q01DX005 (ip), vehicle: saline): 97 % of control
T/C (dose: 64.0 mg/kg/injection, schedule: Q01DX005 (ip), vehicle: saline): 107 % of control

O=C(CCCC(=O)N/N=C/c1ccc(O)c(O)c1)N/N=C\c1ccc(O)c(O)c1
T/C (dose: 50.0 mg/kg/injection, schedule: Q01DX001 (ip), vehicle: other): 104 % of control
T/C (dose: 100.0 mg/kg/injection, schedule: Q01DX001 (ip), vehicle: other): 93 % of control
T/C (dose: 200.0 mg/kg/injection, schedule: Q01DX001 (ip), vehicle: other): 98 % of control
T/C (dose: 400.0 mg/kg/injection, schedule: Q01DX001 (ip), vehicle: other): 91 % of control

CC1SC(c2ccccc2)N(c2ccccc2)C1=O (centres undefined)
T/C (dose: 100.0 mg/kg/injection, schedule: Q01DX009 (ip), vehicle: Klucel (hydroxypropylcellulose) (HPC)): 98 % of control
T/C [13]: 100 % of control
T/C (dose: 200.0 mg/kg/injection, schedule: Q01DX009 (ip), vehicle: Klucel (hydroxypropylcellulose) (HPC)): 114 % of control
T/C [14]: 98 % of control
T/C (dose: 400.0 mg/kg/injection, schedule: Q01DX009 (ip), vehicle: Klucel (hydroxypropylcellulose) (HPC)): 106 % of control
T/C [15]: 100 % of control

CC(=O)Nc1cc(NC(C)=O)cc([N+](=O)[O-])c1
T/C (dose: 50.0 mg/kg/injection, schedule: Q01DX009 (ip), vehicle: saline): 96 % of control
T/C (dose: 100.0 mg/kg/injection, schedule: Q01DX009 (ip), vehicle: saline): 105 % of control
T/C [10]: 94 % of control
T/C [11]: 102 % of control
T/C [12]: 100 % of control

COC(=O)c1nc(Cl)nc(SC)c1Cl
T/C [13]: 96 % of control
T/C [14]: 110 % of control
T/C [15]: 96 % of control

N#CC(C#N)=NNc1ccc(S(=O)(=O)O)cc1
T/C (dose: 100.0 mg/kg/injection, schedule: Q04DX003 (ip), vehicle: saline with Tween-80): 94 % of control
T/C (dose: 200.0 mg/kg/injection, schedule: Q04DX003 (ip), vehicle: saline with Tween-80): 107 % of control
T/C (dose: 400.0 mg/kg/injection, schedule: Q04DX003 (ip), vehicle: saline with Tween-80): 102 % of control

Nc1ccccc1SC(CC(=O)c1ccc(-c2ccccc2)cc1)c1ccco1 (centres undefined)
T/C [1]: 94 % of control
T/C [2]: 105 % of control
T/C [3]: 91 % of control
T/C [4]: 102 % of control
T/C [5]: 91 % of control
T/C [6]: 91 % of control
